Experimental data reported in patent publication US9200269B2, “β-glucuronidase inhibitor” (priority 2007, dated 2015).
Read-outs that look alike come from different tables or passages of the source.

Target: T1, β-glucuronidase Type VII-A derived from Escherichia coli (Escherichia coli, UniProt P05804)
T1 construct: purchased Sigma-Aldrich Corporation
Assay: Inhibition of β-glucuronidase activity (PNPG substrate, absorbance at 400 nm)
Format: biochemical
Conditions: for Inhibition rate (%) Concentration 0.001%: 0.001 wt % in reaction solution
Protocol: 100 μL of a 2 mM PNPG aqueous solution, 40 μL of a 0.5 M phosphate buffer (pH 6.8), 38 μL of ion exchanged water and 2 μL of a 10 or 1 wt % dipropylene glycol (DPG) solution of various compounds or plant extracts were mixed in a bottle γ-ray sterilized in advance, and subsequently 20 μL of a β-glucuronidase aqueous solution adjusted to 16 units/mL was added, in order to allow the enzyme to react in a thermostat bath at 37° C. for 2 hours. Further, in the case of some of compounds, in addition to the above steps, the same experiment was performed using a 0.1 wt % DPG solution as well. As a result, the concentrations of the test compounds and plant extracts in the reaction solution were adjusted to 0.1, 0.01 and 0.001 wt %, respectively. Further, a product prepared by adding DPG in place of the above-mentioned compounds and plant extracts was used as a control, and a product prepared by adding ion exchanged water in place of an enzyme solution was used as a blank for each sample and control, and the respective products were allowed to react for 2 hours in the same manner. It should be noted that the plant extract sample was used as a solvent extract.
The above-mentioned reaction solution was diluted with a 0.2 M glycine buffer (pH 10.4) and measured for its absorbance at a wavelength of 400 nm. The relative activity inhibition rate of a β-glucuronidase was determined by using the obtained measurement value in accordance with the following equation. Absorbance change of control=Absorbance of control−Absorbance of blank for each control Absorbance change of sample=Absorbance of sample−Absorbance of blank for each sample Activity inhibition rate (%)=[(Absorbance change of control−Absorbance change of sample)/Absorbance change of control]×100

[1] = 1.6 units/mL enzyme, 37° C., 2 hours, pH 6.8
[2] = 0.01 wt % in reaction solution, 1.6 units/mL enzyme, 37° C., 2 hours, pH 6.8
[3] = 0.1 wt % in reaction solution, 1.6 units/mL enzyme, 37° C., 2 hours, pH 6.8
[4] = 0.01 wt % in reaction solution, 1.6 units/mL enzyme, 37° C., 2 hours, pH 6.8, read-out: Inhibition rate (%) Concentration 0.01%
[5] = 0.1 wt % in reaction solution, 1.6 units/mL enzyme, 37° C., 2 hours, pH 6.8, read-out: Inhibition rate (%) Concentration 0.1%
[6] = 2 h, pH 6.8, read-out: Inhibition rate (%) Concentration 0.01%
[7] = 2 h, pH 6.8, read-out: Inhibition rate (%) Concentration 0.1%

T1 sequence (P05804 whole entry): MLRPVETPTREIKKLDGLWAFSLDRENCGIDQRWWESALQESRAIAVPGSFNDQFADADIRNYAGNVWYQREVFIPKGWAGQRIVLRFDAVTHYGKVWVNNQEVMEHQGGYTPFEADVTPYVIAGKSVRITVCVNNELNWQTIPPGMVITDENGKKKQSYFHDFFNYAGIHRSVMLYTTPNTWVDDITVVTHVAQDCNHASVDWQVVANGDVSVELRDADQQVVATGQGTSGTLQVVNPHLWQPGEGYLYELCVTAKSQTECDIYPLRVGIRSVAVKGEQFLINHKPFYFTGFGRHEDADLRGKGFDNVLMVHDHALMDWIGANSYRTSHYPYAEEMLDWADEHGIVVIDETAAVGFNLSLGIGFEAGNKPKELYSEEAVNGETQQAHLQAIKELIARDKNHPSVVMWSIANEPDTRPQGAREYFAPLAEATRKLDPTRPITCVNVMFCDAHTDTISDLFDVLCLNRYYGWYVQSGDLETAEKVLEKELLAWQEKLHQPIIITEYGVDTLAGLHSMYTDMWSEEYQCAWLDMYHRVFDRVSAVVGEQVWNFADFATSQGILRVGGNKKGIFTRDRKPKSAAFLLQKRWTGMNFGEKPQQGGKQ

With 3-methyl-4(5)-cyclopentadecen-1-one the “Inhibition rate (%) Concentration 0.001%” value [1] was 92.4%, the “Inhibition rate (%) Concentration 0.01%” value [2] was 99.1% and the “Inhibition rate (%) Concentration 0.1%” value [3] was 98.8%.
Molecule CC(CC=O)CCCC(C)(C)O (stereo not drawn) [Hydroxycitronellal, hydroxycitronellal] has an inhibition at 0.01 wt % [4] of 24.2% and an inhibition at 0.1 wt % [5] of 85.3%.
For O=C1CCC=CCCCCCCCCCC1 [4-Cyclopentadecen-1-one, 4-cyclopentadecen-1-one], the “Inhibition rate (%) Concentration 0.001%” value [1] was 67.2%, the inhibition at 0.01 wt % [4] was 93.5% and the inhibition at 0.1 wt % [5] was 99.1%.
CCOc1cc(C=O)ccc1O [Ethylvanillin, ethylvanillin] gave an inhibition at 0.01 wt % [6] of 38.5% and an inhibition at 0.1 wt % [7] of 78.5%.
C=CCc1ccc(OC)cc1 [Estragole, estragole] showed an inhibition at 0.01 wt % [4] of 94.6% and an inhibition at 0.1 wt % [5] of 99.4%.
In the case of O=C1CCCC=CCCCCCCCCCC1 [5-Cyclohexadecen-1-one, 5-cyclohexadecen-1-one], the “Inhibition rate (%) Concentration 0.001%” value [1] is reported as 65.8%, the inhibition at 0.01 wt % [4] is reported as 93.9% and the inhibition at 0.1 wt % [5] is reported as 98.4%.
In the case of O=C/C=C/c1ccccc1 [Cinnamic aldehyde, cinnamic aldehyde], the “Inhibition rate (%) Concentration 0.001%” value [1] is reported as 46.4%, the inhibition at 0.01 wt % [6] is reported as 96.8% and the inhibition at 0.1 wt % [7] is reported as 100%.
CC1=CC[C@H](C(C)C)C=C1 (racemic) [α-Phellandrene, α-phellandrene] was tested, and the “Inhibition rate (%) Concentration 0.01%” value [2] was 50.0% and the “Inhibition rate (%) Concentration 0.1%” value [3] was 93.6%.
O=C1CCCCC/C=C\CCCCCCCCO1 [7-Cyclohexadecenolide, 7-cyclohexadecenolide] was tested, and the “Inhibition rate (%) Concentration 0.001%” value [1] was 88.1%, the “Inhibition rate (%) Concentration 0.01%” value [2] was 98.5% and the “Inhibition rate (%) Concentration 0.1%” value [3] was 99.6%.
For CCC(=O)/C=C/C1C(C)=CCCC1(C)C (stereo not drawn) [α-Methylionone, α-methylionone], the “Inhibition rate (%) Concentration 0.01%” value [2] was 57.5% and the “Inhibition rate (%) Concentration 0.1%” value [3] was 91.1%.
With CC(=O)/C=C/C1C(C)=CCCC1(C)C (stereo not drawn) [α-Ionone, α-ionone] the “Inhibition rate (%) Concentration 0.01%” value [2] was 43.3% and the “Inhibition rate (%) Concentration 0.1%” value [3] was 91.8%.
With CCC12CCC3C(C)(C)CCCC3(C)C1CCO2 (stereo not drawn) [Grisalva, 6,6,9α-trimethyl-3α-ethyldodecahydronaphtho[2,1-b]furan] the “Inhibition rate (%) Concentration 0.01%” value [2] was 50.4% and the “Inhibition rate (%) Concentration 0.1%” value [3] was 77.3%.
In the case of O=C1CCC=CCCCCCCCCCCO1 [4(5)-Cyclopentadecenolide, 4(5)-cyclopentadecenolide], the “Inhibition rate (%) Concentration 0.01%” value [2] is reported as 47.1% and the “Inhibition rate (%) Concentration 0.1%” value [3] is reported as 76.5%.
Work on CCCCCCCCCC(C)C=O (stereo not drawn) [2-Methylundecanal, 2-methylundecanal] yielded an inhibition at 0.01 wt % [4] of 57% and an inhibition at 0.1 wt % [5] of 62.6%.
OC/C=C/c1ccccc1 [Cinnamic alcohol, cinnamic alcohol] was tested, and the inhibition at 0.01 wt % [6] was 56.2% and the inhibition at 0.1 wt % [7] was 93.5%.
O=CCc1ccccc1 [Phenylacetaldehyde, phenylacetaldehyde] showed an inhibition at 0.01 wt % [4] of 31.9% and an inhibition at 0.1 wt % [5] of 72.2%.
CC(CCO)CCc1ccccc1 (stereo not drawn) [Phenylhexanol, 3-methyl-5-phenyl-1-pentanol] gave an inhibition at 0.01 wt % [4] of 52.1% and an inhibition at 0.1 wt % [5] of 61.2%.
C=CC(C)(O)CCC=C(C)C (stereo not drawn) [Linalool, linalool] gave an inhibition at 0.01 wt % [4] of 31.7% and an inhibition at 0.1 wt % [5] of 91%.
With C=CCc1ccc(O)c(OC)c1 [Eugenol, eugenol] the inhibition at 0.01 wt % [4] was 36.8% and the inhibition at 0.1 wt % [5] was 93.2%.
For CC(=O)C1(C)CC2=C(CCCC2(C)C)CC1C (stereo not drawn) [Iso E Super, 1,2,3,4,5,6,7,8-octahydro-2,3,8,8-tetramethyl-2-acetonaphthone], the “Inhibition rate (%) Concentration 0.01%” value [2] was 63.1% and the “Inhibition rate (%) Concentration 0.1%” value [3] was 85.9%.
With CC1=CCCC2(C)OC2CCC(C)=CCC1 (stereo not drawn) [Cedroxide, 4,8,12-trimethyl-13-oxabicyclo-[10.1.0]trideca-4,8-diene] the inhibition at 0.01 wt % [4] was 40.1% and the inhibition at 0.1 wt % [5] was 82.6%.
In the case of C=C(C)[C@@H]1CCC2=CC(=O)C[C@@H](C)[C@]2(C)C1 [Nootkatone, nootkatone], the inhibition at 0.01 wt % [4] is reported as 80.8% and the inhibition at 0.1 wt % [5] is reported as 95.2%.
For CC(=O)OCC=Cc1ccccc1 [Cinnamyl acetate, cinnamyl acetate], the inhibition at 0.01 wt % [4] was 51.3% and the inhibition at 0.1 wt % [5] was 96.2%.
CC(C)(O)CCCC1=CCC(C=O)CC1 (stereo not drawn) [Lyral, 4-(4-hydroxy-4-methylpentyl)-3-cyclohexene-1-carboxyaldehyde] was tested, and the inhibition at 0.01 wt % [4] was 51.6% and the inhibition at 0.1 wt % [5] was 94.4%.
O=C1CCCCCCCC=CCCCCCCC1 [9-Cycloheptadecen-1-one, 9-cycloheptadecen-1-one] was tested, and the “Inhibition rate (%) Concentration 0.001%” value [1] was 95.8%, the inhibition at 0.01 wt % [4] was 96.3% and the inhibition at 0.1 wt % [5] was 100%.
Work on O=CCCc1ccccc1 [3-Phenylpropanal, 3-phenylpropanal] yielded an inhibition at 0.01 wt % [4] of 23.3% and an inhibition at 0.1 wt % [5] of 81.7%.
For CC(=O)OCCC(C)CCC=C(C)C (stereo not drawn) [Citronellyl acetate, citronellyl acetate], the inhibition at 0.01 wt % [4] was 44.8% and the inhibition at 0.1 wt % [5] was 84.2%.
In the case of vetiverol, the “Inhibition rate (%) Concentration 0.01%” value [2] is reported as 88.0% and the “Inhibition rate (%) Concentration 0.1%” value [3] is reported as 97.1%.
COC1CCCCCCCCCCC1 [Palisandin, 1-methoxycyclododecane] showed an inhibition at 0.01 wt % [4] of 53.3% and an inhibition at 0.1 wt % [5] of 85%.
With C/C=C\C(=O)C1C(C)=CCCC1(C)C (stereo not drawn) [α-Damascone, α-damascone] the “Inhibition rate (%) Concentration 0.01%” value [2] was 42.6% and the “Inhibition rate (%) Concentration 0.1%” value [3] was 89.9%.
CCCCCC1=CCCC1=O [2-Pentylcyclopentenone, 2-pentylcyclopentenone] was tested, and the “Inhibition rate (%) Concentration 0.01%” value [2] was 93.3% and the “Inhibition rate (%) Concentration 0.1%” value [3] was 97.8%.
For COc1ccc(C)cc1 [p-Cresyl methyl ether, p-cresyl methyl ether], the inhibition at 0.01 wt % [4] was 24% and the inhibition at 0.1 wt % [5] was 85.9%.
CC(C)CCOCCc1ccccc1 [Phenylethyl isoamyl ether, phenylethyl isoamyl ether] was tested, and the inhibition at 0.01 wt % [4] was 60.8% and the inhibition at 0.1 wt % [5] was 88.8%.
In the case of CC(C=O)Cc1ccc(C(C)(C)C)cc1 (stereo not drawn) [Lilial, 2-methyl-3-(4-tert-butylphenyl)-propanal], the inhibition at 0.01 wt % [4] is reported as 60.9% and the inhibition at 0.1 wt % [5] is reported as 72.3%.
CCC=CCCC=CC=O [2,6-Nonadienal, 2,6-nonadienal] was tested, and the inhibition at 0.01 wt % [4] was 60.9% and the inhibition at 0.1 wt % [5] was 95.2%.
With O=C1CCCCCCCCCCCCCC1 [Cyclopentadecanone, cyclopentadecanone] the inhibition at 0.01 wt % [4] was 35.6% and the inhibition at 0.1 wt % [5] was 73.3%.
C/C=C/C(=O)C1=C(C)CCCC1(C)C [β-Damascone, β-damascone] was tested, and the “Inhibition rate (%) Concentration 0.01%” value [2] was 39.5% and the “Inhibition rate (%) Concentration 0.1%” value [3] was 77.3%.
For CC(=O)/C(C)=C/C1C(C)=CCCC1(C)C (stereo not drawn) [γ-Methylionone, γ-methylionone], the “Inhibition rate (%) Concentration 0.001%” value [1] was 22.0%, the “Inhibition rate (%) Concentration 0.01%” value [2] was 84.1% and the “Inhibition rate (%) Concentration 0.1%” value [3] was 98.5%.
Molecule CC(C)c1ccc(C=O)cc1 [Cuminaldehyde, cuminaldehyde] has an inhibition at 0.01 wt % [4] of 37.8% and an inhibition at 0.1 wt % [5] of 97.1%.
CC(C=O)Cc1ccc(C(C)C)cc1 (stereo not drawn) [Cyclamen aldehyde, cyclamen aldehyde] was tested, and the “Inhibition rate (%) Concentration 0.001%” value [1] was 27.4%, the “Inhibition rate (%) Concentration 0.01%” value [2] was 82.7% and the “Inhibition rate (%) Concentration 0.1%” value [3] was 87.5%.
COC1(C)CCCCCCCCCCC1 [Madrox, 1-methyl-1-methoxycyclododecane] was tested, and the inhibition at 0.01 wt % [4] was 60.9% and the inhibition at 0.1 wt % [5] was 92.4%.
In the case of CC(=O)/C=C/C1=C(C)CCCC1(C)C [β-Ionone, β-ionone], the “Inhibition rate (%) Concentration 0.01%” value [2] is reported as 40.2% and the “Inhibition rate (%) Concentration 0.1%” value [3] is reported as 81.1%.
In the case of CC(C)=CCCC1=CCC(C=O)CC1 (stereo not drawn) [Myrac aldehyde, 4-(4-methyl-3-pentenyl)-3-cyclohexene-1-carboxyaldehyde], the “Inhibition rate (%) Concentration 0.01%” value [2] is reported as 49.7% and the “Inhibition rate (%) Concentration 0.1%” value [3] is reported as 63.7%.
For CC(C)=CCCC(C)=CC=O [Citral, citral], the inhibition at 0.01 wt % [4] was 29.1% and the inhibition at 0.1 wt % [5] was 84.1%.
Cc1ccc2c(c1)OCC(=O)CO2 [Calone, 7-methyl-3,4-dihydro-(2H)-1,5-benzodioxepin-3-one] was tested, and the inhibition at 0.01 wt % [4] was 17.3% and the inhibition at 0.1 wt % [5] was 73.3%.
In the case of CCCCCCCC1CCCC1=O (stereo not drawn) [2-Heptylcyclopentanone, 2-heptylcyclopentanone], the inhibition at 0.01 wt % [4] is reported as 17.1% and the inhibition at 0.1 wt % [5] is reported as 70.6%.
With O=C1CCCCCCCCOCCCCCCO1 [10-Oxa-16-hexadecanolide, 10-oxa-16-hexadecanolide] the “Inhibition rate (%) Concentration 0.001%” value [1] was 63.0%, the inhibition at 0.01 wt % [4] was 95.8% and the inhibition at 0.1 wt % [5] was 99.4%.
Molecule C=CC(C)(CCC=C(C)C)OC(C)=O (stereo not drawn) [Linalyl acetate, linalyl acetate] has an inhibition at 0.01 wt % [4] of 62.6% and an inhibition at 0.1 wt % [5] of 95.8%.
In the case of CC/C=C\CC1=C(C)CCC1=O [cis-Jasmone, cis-jasmone], the “Inhibition rate (%) Concentration 0.001%” value [1] is reported as 24.8%, the “Inhibition rate (%) Concentration 0.01%” value [2] is reported as 77.2% and the “Inhibition rate (%) Concentration 0.1%” value [3] is reported as 99.2%.
